Test results reported in patent US12378296B2, “Glucagon analogues as long-acting GLP-1/glucagon receptor agonists in the treatment of fatty liver disease and steatohepatitis” (Boehringer Ingelheim International GmbH, priority 2020, dated 2025).

Test: Pharmacokinetic parameters after intravenous administration to rats
Assay type: in vivo
Conditions: male, Han/Wistar, plasma, rat, i.v. 20 nmol/kg; for MRT: read-out: Mean Residence Time; for half-life: read-out: Terminal half-life (converted)
Procedure: Pharmacokinetic parameters of the test compounds were determined after intravenous administration to Han/Wistar rats. The acylated GLP-1 analogue semaglutide was also tested for comparison purposes.
Male Wistar rats were obtained from Charles River (Germany) weighing approximately 180 to 210 g at time of arrival at the test facility. Rats were caged in European standard rat cages type IV with light cycle of 12-hour dark and 12-hour light. During the study rats were housed in standard rat cages type III. Both diet Altromin 1324 (Altromin, Germany) and water was administered ad libitum during the whole experimental period. The animals were housed in the test facility for at least 4 days in order to assure proper acclimatization.
The compounds were first dissolved in 0.1% aqueous ammonia to a nominal concentration of 2 mg/ml, and then diluted to the desired dosing strength (10 μM) in sterile PBS containing 25 mM phosphate buffer, pH 7.4. Intravenous injections corresponding to 20 nmol/kg were given via a lateral tail vein.
Blood samples (200 μl) were collected from the periorbital plexus at time points 0.08, 0.25, 0.5, 1, 2, 4, 8, 24, 32 and 48 h post dosing into K3EDTA tubes and centrifuged for 5 minutes at 4° C. within 20 minutes of sampling. Plasma samples (>100 μl) were transferred to 96-well PCR plates, immediately frozen and kept at −20° C. until analysed for plasma concentration for the respective GLP-1-glucagon compound using LC-MS/MS. Individual plasma concentration-time profiles were analysed by a non-compartmental approach using ToxKin™ version 3.2 (Unilog IT Services), and the resulting pharmacokinetic parameters were determined.

| clearance [mL/h/kg] | MRT [h] | half-life [h] | SMILES |
| --- | --- | --- | --- |
| 5.98 | 23.7 | 18.1 | CC[C@H](C)[C@H](NC(=O)[C@H](Cc1ccccc1)NC(=O)[C@H](CC(=O)O)NC(=O)[C@H](CCCCN)NC(=O)[C@H](C)NC(=O)[C@H](C)NC(=O)[C@H](CCCNC(=N)N)NC(=O)[C@H](CCC(=O)O)NC(=O)[C@H](CC(=O)O)NC(=O)[C@H](CC(C)C)NC(=O)[C@H](Cc1ccc(O)cc1)NC(=O)[C@H](CCCCN)NC(=O)[C@H](CO)NC(=O)[C@H](Cc1ccc(O)cc1)NC(=O)[C@H](CC(=O)O)NC(=O)[C@H](CO)NC(=O)[C@@H](NC(=O)[C@H](Cc1ccccc1)NC(=O)[C@@H](NC(=O)CNC(=O)[C@H](CCC(N)=O)NC(=O)C1(NC(=O)[C@@H](N)Cc2c[nH]cn2)CCC1)[C@@H](C)O)[C@@H](C)O)C(=O)N[C@@H](CCC(=O)O)C(=O)N[C@@H](Cc1c[nH]c2ccccc12)C(=O)N[C@@H](CC(C)C)C(=O)N[C@@H](CCC(=O)O)C(=O)N[C@@H](CCCCNC(=O)CNC(=O)CNC(=O)[C@H](CO)NC(=O)CNC(=O)[C@H](CO)NC(=O)CNC(=O)CC[C@H](NC(=O)CCCCCCCCCCCCCCCCC(=O)O)C(=O)O)C(=O)N[C@@H](C)C(N)=O [Compound 6] |
| 3.57 | 28.5 | 22.8 | CC[C@H](C)[C@H](NC(=O)[C@H](Cc1ccccc1)NC(=O)[C@H](CC(=O)O)NC(=O)[C@H](CCCCN)NC(=O)[C@H](C)NC(=O)[C@H](C)NC(=O)[C@H](CCCNC(=N)N)NC(=O)[C@H](CCC(=O)O)NC(=O)[C@H](CC(=O)O)NC(=O)[C@H](CC(C)C)NC(=O)[C@H](Cc1ccc(O)cc1)NC(=O)[C@H](CCCCN)NC(=O)[C@H](CO)NC(=O)[C@H](Cc1ccc(O)cc1)NC(=O)[C@H](CC(=O)O)NC(=O)[C@H](CO)NC(=O)[C@@H](NC(=O)[C@H](Cc1ccccc1)NC(=O)[C@@H](NC(=O)CNC(=O)[C@H](CCC(N)=O)NC(=O)C1(NC(=O)[C@@H](N)Cc2c[nH]cn2)CCC1)[C@@H](C)O)[C@@H](C)O)C(=O)N[C@@H](CCCCNC(=O)CNC(=O)CNC(=O)[C@H](CO)NC(=O)CNC(=O)[C@H](CO)NC(=O)CNC(=O)CC[C@H](NC(=O)CCCCCCCCCCCCCCCCC(=O)O)C(=O)O)C(=O)N[C@@H](Cc1c[nH]c2ccccc12)C(=O)N[C@@H](CC(C)C)C(=O)N[C@@H](CCC(=O)O)C(=O)N[C@@H](CO)C(=O)N[C@@H](C)C(N)=O [Compound 5] |
